Test results published in patent US7217423B2, “Revitalising active complex for the skin” (Coty B.V., priority 2001, dated 2007).

How the values were obtained:
[1] = system: cell homogenate of epithelial cells; test: oxygraphy: stimulation of oxygen consumption; assay type: cell-based; details: control = 100%
Text: Another synergy could be observed with regard to oxygraphy, i.e. the stimulation of the oxygen consumption of a cell homogenate of epithelial cells.

[2] = system: dermal fibroblasts obtained from explanted normal human skin; test: in-vitro anti-stress test under UV activity (LDH); assay type: cell-based; details: control group = 100%, mean of 5 tests
Procedure: In this test, a culture of dermal fibroblasts obtained from explanted normal human skin is subjected to UV-induced stress. The amounts of the enzyme lacticodes-hydrogenase (LDH) produced as a consequence of the aforesaid stress are proportional to the cell damage caused. The culture medium contained, for example, 3 wt. % of glycogen (Dermo-saccharides GY®), and a series of control tests without the aforesaid additive was carried out for comparative purposes.

Q: How did the oxygen consumption ([1]; 2 wt. % creatine added to control liquid (buffer)) turn out when `CN(CC(=O)O)C(=N)N` [creatine, N-carbamidoyl-N-methylglycine] was run?
A: The oxygen consumption was 119%.

Q: And the “protection of cells after UV radiation” value ([2]; 2 wt. % creatine in culture liquid)?
A: The value was 110%.

Q: With glycogen as the molecule, how does the oxygen consumption ([1]; 3 wt. % glycogen added to control liquid (buffer)) read?
A: Its oxygen consumption is 135%.

Q: What about the “protection of cells still alive after UV radiation” value ([2]; 3 wt. % glycogen in culture medium, 4 days after UV radiation) of the same molecule?
A: The value was 128%.
